In the supplement of paper PMC11061612:

Tests used:
[1] = tested on: CAL-148 (Breast Carcinoma); test: Bliss excess, mean over the matrix (fraction); higher = more synergy
Summary of the method: (§1)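 After 24 hours at 37°C and 5% CO2 in 1536-well plates, cells in DMEM/F12 or RPMI plus 10% FBS received two-drug dose matrices for 72 hours. Viability came from CellTiter-Glo 2.0 luminescence and was scaled as inhibition, anchored at 0 by vehicle wells and at 1 by blank wells. Combination Emax is taken as the second-highest inhibition in the matrix, and Bliss excess as the observed combination effect less EA + EB − EA·EB, with EA and EB the single-agent effects.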

[2] = tested on: CCRF-CEM (T-Lymphoblastic Leukemia); test: as above
Summary of the method: as §1

[3] = tested on: CaR-1 (Colorectal Carcinoma); test: as above
Summary of the method: as §1

[4] = tested on: Calu-3 (Lung Adenocarcinoma); test: as above
Summary of the method: as §1

[5] = tested on: DoTc2-4510 (Cervical Carcinoma); test: as above
Summary of the method: as §1

[6] = tested on: HCC-78 (Lung Adenocarcinoma); test: as above
Summary of the method: as §1

[7] = tested on: HO-1-N-1 (Oral Cavity Carcinoma); test: as above
Summary of the method: as §1

HOS (Osteosarcoma) [8] = test: as above
Summary of the method: as §1

[9] = tested on: HT-1376 (Bladder Carcinoma); test: as above
Summary of the method: as §1

[10] = tested on: Hs-578-T (Breast Carcinoma); test: as above
Summary of the method: as §1

KELLY (Neuroblastoma) [11] = test: as above
Summary of the method: as §1

[12] = tested on: KURAMOCHI (Ovarian Carcinoma); test: as above
Summary of the method: as §1

[13] = tested on: LB831-BLC (Bladder Carcinoma); test: as above
Summary of the method: as §1

[14] = tested on: LS-180 (Colorectal Carcinoma); test: as above
Summary of the method: as §1

[15] = tested on: ME-1 (Acute Myeloid Leukemia); test: as above
Summary of the method: as §1

NB10 (Neuroblastoma) = test: as above
Summary of the method: as §1

[16] = tested on: NCI-H2085 (Non-Small Cell Lung Carcinoma); test: as above
Summary of the method: as §1

[17] = tested on: NCI-H82 (Small Cell Lung Carcinoma); test: as above
Summary of the method: as §1

[18] = tested on: RO82-W-1 (Thyroid Gland Carcinoma); test: as above
Summary of the method: as §1

[19] = tested on: Ramos-2G6-4C10 (Burkitt's Lymphoma); test: as above
Summary of the method: as §1

T98G (Glioblastoma) [20] = test: as above
Summary of the method: as §1

[21] = tested on: TE-15 (Esophageal Squamous Cell Carcinoma); test: as above
Summary of the method: as §1

[22] = tested on: TE-9 (Esophageal Squamous Cell Carcinoma); test: as above
Summary of the method: as §1

[23] = tested on: UM-UC-3 (Bladder Carcinoma); test: as above
Summary of the method: as §1

[24] = tested on: CAL-148 (Breast Carcinoma); test: combination Emax (second highest fraction inhibited in the dose matrix, 72 h); higher = more inhibition; extreme values may be limits of the assay
Summary of the method: as §1

[25] = tested on: CCRF-CEM (T-Lymphoblastic Leukemia); test: as above
Summary of the method: as §1

[26] = tested on: CaR-1 (Colorectal Carcinoma); test: as above
Summary of the method: as §1

[27] = tested on: Calu-3 (Lung Adenocarcinoma); test: as above
Summary of the method: as §1

[28] = tested on: DoTc2-4510 (Cervical Carcinoma); test: as above
Summary of the method: as §1

[29] = tested on: HCC-78 (Lung Adenocarcinoma); test: as above
Summary of the method: as §1

[30] = tested on: HO-1-N-1 (Oral Cavity Carcinoma); test: as above
Summary of the method: as §1

HOS (Osteosarcoma) [31] = test: as above
Summary of the method: as §1

[32] = tested on: HT-1376 (Bladder Carcinoma); test: as above
Summary of the method: as §1

[33] = tested on: Hs-578-T (Breast Carcinoma); test: as above
Summary of the method: as §1

KELLY (Neuroblastoma) [34] = test: as above
Summary of the method: as §1

[35] = tested on: KURAMOCHI (Ovarian Carcinoma); test: as above
Summary of the method: as §1

[36] = tested on: LB831-BLC (Bladder Carcinoma); test: as above
Summary of the method: as §1

[37] = tested on: LS-180 (Colorectal Carcinoma); test: as above
Summary of the method: as §1

[38] = tested on: ME-1 (Acute Myeloid Leukemia); test: as above
Summary of the method: as §1

[39] = tested on: NCI-H2085 (Non-Small Cell Lung Carcinoma); test: as above
Summary of the method: as §1

[40] = tested on: NCI-H82 (Small Cell Lung Carcinoma); test: as above
Summary of the method: as §1

[41] = tested on: RO82-W-1 (Thyroid Gland Carcinoma); test: as above
Summary of the method: as §1

T98G (Glioblastoma) [42] = test: as above
Summary of the method: as §1

[43] = tested on: TE-15 (Esophageal Squamous Cell Carcinoma); test: as above
Summary of the method: as §1

[44] = tested on: TE-9 (Esophageal Squamous Cell Carcinoma); test: as above
Summary of the method: as §1

[45] = tested on: UM-UC-3 (Bladder Carcinoma); test: as above
Summary of the method: as §1
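For Bliss excess, mean over the matrix in this document: after 72 h of two-drug dosing.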

SMILES: C[C@@H]1COCCN1c1cc(C2([S@](C)(=N)=O)CC2)nc(-c2ccnc3[nH]ccc23)n1 [AZD6738] + Nc1ccn([C@@H]2O[C@H](CO)[C@@H](O)C2(F)F)c(=O)n1 [Gemcitabine] (first compound max 10 µM, 7x7, partner max 0.3 µM)
- Bliss excess [1]: 0.0914
- Bliss excess [2]: 0.0838
- Bliss excess [3]: 0.0538
- Bliss excess [4]: 0.0685
- Bliss excess [5]: 0.118
- Bliss excess [6]: 0.067
- Bliss excess [7]: 0.0528
- Bliss excess (HOS (Osteosarcoma) [8]): 0.134
- Bliss excess [9]: -0.0097
- Bliss excess [10]: 0.012
- Bliss excess (KELLY (Neuroblastoma) [11]): -0.0042
- Bliss excess [12]: 0.0761
- Bliss excess [13]: 0.113
- Bliss excess [14]: -0.0568
- Bliss excess [15]: 0.0907
- Bliss excess (NB10 (Neuroblastoma)): 0.0622
- Bliss excess [16]: 0.07
- Bliss excess [17]: -0.0333
- Bliss excess [18]: -0.018
- Bliss excess [19]: 0.15
- Bliss excess (T98G (Glioblastoma) [20]): -0.0284
- Bliss excess [21]: 0.0378
- Bliss excess [22]: 0.038
- Bliss excess [23]: 0.113
- combination Emax [24]: 1
- combination Emax [25]: 1
- combination Emax [26]: 0.752
- combination Emax [27]: 0.694
- combination Emax [28]: 0.795
- combination Emax [29]: 0.901
- combination Emax [30]: 1
- combination Emax (HOS (Osteosarcoma) [31]): 0.87
- combination Emax [32]: 0.491
- combination Emax [33]: 0.772
- combination Emax (KELLY (Neuroblastoma) [34]): 1
- combination Emax [35]: 0.667
- combination Emax [36]: 0.9
- combination Emax [37]: 0.819
- combination Emax [38]: 0.774
- combination Emax [39]: 0.587
- combination Emax [40]: 0.987
- combination Emax [41]: 0.223
- combination Emax (T98G (Glioblastoma) [42]): 0.858
- combination Emax [43]: 0.939
- combination Emax [44]: 0.538
- combination Emax [45]: 0.966
